The test system of one data set is BxPC3 cells. Briefly: MTT cytotoxicity assay, BxPC3 pancreatic adenocarcinoma cells. It counts as cell-based, human. As to conditions: for IC50: Homo sapiens, BXPC-3, MTT test, 72 h of drug treatment, read-out: BxPC3 IC50 (μM) ± SD. The protocol: Compounds active against at least one kinase among EGFR and class III RTKs were evaluated for their cytotoxic properties against two different human cancer cell lines, namely non small cells A549 lung cancer cells (sensitive to EGFR inhibitors)[46] and pancreatic BxPC3 adenocarcinoma (sensitive to both PDGFRβ and EGFR inhibitors)[47][48] cells. […] The results, expressed as IC50 values (μM) calculated from the dose-survival curves obtained after 72 h of drug treatment from the MTT test, are reported in Table 1.
(§1) All compounds, except derivative 27, were dissolved in DMSO just before the experiment, and a calculated amount of drug solution was added to the cell growth medium to a final solvent concentration of 0.5%, which had no discernible effect on cell killing. Compound 27 was dissolved in a 0.9% NaCl solution just before the experiment.
Human lung (A549), breast (MCF-7), pancreas (BxPC3), and colon (LoVo) carcinoma cell lines along with melanoma (A375) were obtained from American Type Culture Collection (ATCC, Rockville, MD). Human non-tumor embryonic kidney HEK293 cells were obtained from European Collection of Cell Cultures (ECACC, Salisbury, UK). Human cervical carcinoma A431cells were kindly provided by Prof. F. Zunino (Division of Experimental Oncology B, Istituto Nazionale dei Tumori, Milan, Italy). Human ovarian cancer 2008 cells were kindly provided by Prof. G. Marverti (Dept. of Biomedical Science of Modena University, Italy). Cell lines were maintained in the logarithmic phase at 37 °C in a 5% carbon dioxide atmosphere using the following culture media containing 10% fetal calf serum (Euroclone, Milan, Italy), antibiotics (50 units ∙ mL^−1 penicillin and 50 μg ∙ mL^−1 streptomycin) and 2 mM l-glutamine: i) RPMI-1640 medium (Euroclone) for MCF-7, A431, BxPC3 and 2008 cells; ii) F-12 HAM’S (Sigma Chemical Co.) for A549 and LoVo cells; iii) D-MEM medium (Euroclone) for HEK293 cells.
The growth inhibitory effect towards human cell lines was evaluated by means of MTT (tetrazolium salt reduction) assay. Briefly, 3–8 ∙ 10^3 cells/well, dependent upon the growth characteristics of the cell line, were seeded in 96-well microplates in growth medium (100 μL) and then incubated at 37 °C in a 5% carbon dioxide atmosphere. After 24 h, the medium was removed and replaced with a fresh one containing the test compound at the appropriate concentration. Triplicate cultures were established for each treatment. After 72 h, each well was treated with 10 μL of a 5 mg ∙ mL-1 MTT (3-(4,5-dimethylthiazol-2-yl)-2,5-diphenyltetrazolium bromide) saline solution, and after 5 h additional incubation, 100 μL of a sodium dodecylsulfate (SDS) solution in HCl 0.01 M were added. After overnight incubation, the inhibition of cell growth induced by the tested complexes was detected by measuring the absorbance of each well at 570 nm using a Bio-Rad 680 microplate reader (Bio-Rad, Hercules, CA). Mean absorbance for each drug dose was expressed as a percentage of the control untreated well absorbance and plotted vs drug concentration.
In general terms: Formazan colour is commonly taken as a measure of viable cells.

For the next data set, the system named is MCF-7 cells. Nature of the data set: MTT cytotoxicity assay, MCF-7 breast cancer cells. The format is cell-based. The conditions noted are these: Homo sapiens, MCF7; MTT test, 72 h; read-out: MCF-7 IC50 (μM) ± SD. The protocol:
(§2) The cytotoxic profile of 19 and 27 was assessed on a wider panel of human tumor cell lines including also examples of breast (MCF-7), cervical (A431), colorectal (HCT-15), and ovarian (2008) cancers as well as melanoma (A375), besides lung (A549) and pancreatic (BxPC3) cancer cells. IC50 values, calculated from the dose-survival curves obtained after 72 h of drug treatment from the MTT test, are reported in Table 2. […] Both compounds were endowed with a cytotoxic potency higher than that of SU, eliciting IC50 values in the low micromolar range.
as §1
(§3) Human lung (A549), breast (MCF-7), pancreas (BxPC3), and colon (LoVo) carcinoma cell lines along with melanoma (A375) were obtained from American Type Culture Collection (ATCC, Rockville, MD). Human non-tumor embryonic kidney HEK293 cells were obtained from European Collection of Cell Cultures (ECACC, Salisbury, UK). Human cervical carcinoma A431cells were kindly provided by Prof. F. Zunino (Division of Experimental Oncology B, Istituto Nazionale dei Tumori, Milan, Italy). Human ovarian cancer 2008 cells were kindly provided by Prof. G. Marverti (Dept. of Biomedical Science of Modena University, Italy). […]
(§4) The growth inhibitory effect towards human cell lines was evaluated by means of MTT (tetrazolium salt reduction) assay. […] After overnight incubation, the inhibition of cell growth induced by the tested complexes was detected by measuring the absorbance of each well at 570 nm using a Bio-Rad 680 microplate reader (Bio-Rad, Hercules, CA). Mean absorbance for each drug dose was expressed as a percentage of the control untreated well absorbance and plotted vs drug concentration.

Another data set concerns A431 cells. Nature of the data set: MTT cytotoxicity assay, A431 epidermoid carcinoma cells. The conditions noted are these: Homo sapiens, A-431; MTT test, 72 h; read-out: A431 IC50 (μM) ± SD. It counts as cell-based. As to the method:
F. Zunino (Division of Experimental Oncology B, Istituto Nazionale dei Tumori, Milan, Italy).
The growth inhibitory effect towards human cell lines was evaluated by means of MTT (tetrazolium salt reduction) assay. […] Triplicate cultures were established for each treatment.

In another data set the test system is A375 cells. Briefly: MTT cytotoxicity assay, A375 melanoma cells. It counts as cell-based. As to conditions: Homo sapiens, A-375; MTT test, 72 h; read-out: A375 IC50 (μM) ± SD. As to the method: as §2, §1, §3, §4
Another data set deals with T1, CSF1R (Homo sapiens, UniProt P07333).
T1 construct: purchased DiscoverX (KinomeScan service)
Briefly: KinomeScan Kd determination, CSF1R. The conditions noted are these: for KdRTK/KdKIT, CSF1R: Kd CSF1R over Kd KIT; for Kd: KinomeScan. The format is binding. As to the method:
The compounds were evaluated using the KinomeScan™ platform (http://www.discoverx.com/services/drug-discovery-development-services/kinase-profiling/kinomescan), that measures the ability of the test compound to disrupt the complex between a high affinity ATP-mimic probe immobilized on a solid support and the kinase of interest. The KinomeScan is a very helpful technology for the fast and reliable screening of a number of compounds against a wide and customizable panel of kinases. Besides, it is not based on the use of hazardous radioactive ^32P-ATP and has a very low rate of false positive (<1%)[44]. The screening platform outputs a “Percent of Control” (POC) value, statistically correlated to the dissociation constant (Kd) value (http://www.discoverx.com/tools-resources/leadhunter-study-reports-data-analysis), for each pair of kinase/ligand. The POC is calculated as reported in equation (1): […]
The ability of compounds 19 and 27 to bind the class III RTK members was measured (Table 2; see also Figs S3 and S4 for dose/response curves).
Figure S3. Dose/response curve for compound 19 against tested kinases for Kd determination. The amount of kinase measured by qPCR (Signal; y-axis) is plotted against the corresponding compound concentration in nM in log10 scale (x-axis). Data points marked with an "x" were not used for Kd determination.
(1 picture or pasted object on this page, not shown here)
Figure S4. Dose/response curve for compound 27 against tested kinases for Kd

A short description of data set [1]: MTD studies (highest not toxic dose). It counts as in vivo. The conditions noted are these: C57BL, mouse, in vivo; daily ip; read-out: Highest not toxic dose as determined by MTD studies.

Usually IC50 stands for the point on the concentration scale where inhibition reaches its midpoint. The Kd is the concentration at which binding is half-saturated.

Read-outs that look alike come from different tables or passages of the source. A value given as a limit tells only on which side of the number the result lay.

T1 sequence (P07333 20-972): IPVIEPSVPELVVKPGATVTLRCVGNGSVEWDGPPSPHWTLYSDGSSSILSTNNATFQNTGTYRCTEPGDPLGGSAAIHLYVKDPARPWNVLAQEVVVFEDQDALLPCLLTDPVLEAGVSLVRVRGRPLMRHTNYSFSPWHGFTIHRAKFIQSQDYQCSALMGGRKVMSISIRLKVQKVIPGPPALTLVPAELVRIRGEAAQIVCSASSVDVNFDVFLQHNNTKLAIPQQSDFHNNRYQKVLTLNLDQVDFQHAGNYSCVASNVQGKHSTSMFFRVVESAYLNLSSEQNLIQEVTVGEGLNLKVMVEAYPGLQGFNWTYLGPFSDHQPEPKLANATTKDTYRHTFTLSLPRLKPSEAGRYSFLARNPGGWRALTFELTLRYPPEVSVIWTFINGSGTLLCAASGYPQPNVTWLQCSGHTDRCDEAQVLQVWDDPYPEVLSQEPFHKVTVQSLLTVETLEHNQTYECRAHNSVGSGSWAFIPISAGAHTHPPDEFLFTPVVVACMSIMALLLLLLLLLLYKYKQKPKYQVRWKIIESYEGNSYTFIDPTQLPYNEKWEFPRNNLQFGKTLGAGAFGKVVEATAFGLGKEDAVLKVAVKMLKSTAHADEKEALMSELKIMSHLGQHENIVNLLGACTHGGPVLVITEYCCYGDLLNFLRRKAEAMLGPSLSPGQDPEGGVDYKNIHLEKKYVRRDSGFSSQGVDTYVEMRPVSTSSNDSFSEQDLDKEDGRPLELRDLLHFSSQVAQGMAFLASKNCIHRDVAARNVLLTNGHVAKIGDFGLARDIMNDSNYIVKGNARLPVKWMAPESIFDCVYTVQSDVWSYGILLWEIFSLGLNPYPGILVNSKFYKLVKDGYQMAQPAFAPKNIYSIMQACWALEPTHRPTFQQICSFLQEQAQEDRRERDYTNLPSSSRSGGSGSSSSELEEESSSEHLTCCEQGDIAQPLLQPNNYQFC

Regarding `O=C(CN1CCOCC1)Nc1cccc(-c2cc(Nc3ccc(NC(=O)Nc4ccccc4)cc3)ncn2)c1` [Compound 27], the IC50 in the data set on BxPC3 cells amounted to 0.81 ± 0.32 µM; in the data set on MCF-7 cells, 1.55 ± 0.75 µM; in the data set on A431 cells, 1.96 ± 0.92 µM; in the data set with A375 cells, 5.56 ± 1.39 µM. For the same compound, in the data set with BxPC3 cells (ratio between IC50 of sunitinib and IC50 of tested compound, BxPC3), the “Potency relative to SU (BxPC3)” value was found to be 6. Moreover, the “Potency improvement Kd19/Kd27, CSF1R” value at CSF1R (27 versus 19) is on record as 2.6. Further, the “KdRTK/KdKIT, CSF1R” value at CSF1R is 110. Besides, the Kd on CSF1R (bound stated, read-out: Kd against CSF1R) was above 1000 nM; on CSF1R (read-out: Kd (nM) CSF1R), 1100 nM. Besides, the MTD in data set [1] was 7.5 mg/kg.
As for `O=C(Nc1ccccc1)Nc1ccc(Nc2cc(-c3ccccc3)ncn2)cc1` [Compound 19], the 50% inhibitory concentration (IC50) was determined as 0.77 ± 0.21 µM in the data set with BxPC3 cells, 1.23 ± 0.89 µM in the data set with MCF-7 cells, 2.85 ± 1.03 µM in the data set on A431 cells and 6.41 ± 2.02 µM in the data set on A375 cells. Moreover, on CSF1R, the “KdRTK/KdKIT, CSF1R” value is given as 132. For the same compound, the dissociation constant Kd at CSF1R (read-out: Kd (nM) CSF1R) turned out to be 2900 nM.
